Reference: patent US7700617B2, “Salt of naphthyridine carboxylic acid derivative” (LG Life Sciences, Ltd., priority 1997, dated 2010)
Values after ≈ are worked out from the molar mass of the structure shown.

Columns and labels:
[1] = Chemical stability at elevated temperature, decomposition by liquid chromatography; type: physicochemical; details: at 70° C.
Description: The present inventors also compared the chemical stability under heating of the hydrates with that of the anhydrate in order to identify the influence of hydration on the chemical stability. In this test, the anhydrate and hydrate were each kept at 70° C. for 4 weeks, and the extent of decomposition is analyzed by liquid chromatography. No difference in the extent of decomposition was noticed between the hydrates and the anhydrate, and thus confirming that the hydrate has the same chemical stability as the anhydrate.
The chemical stability of the n=3 hydrate of Example 2 and the n=1.5 hydrate of Example 3 and the anhydrate of Example 1 were compared at elevated temperature in order to determine the effect on chemical stability of the extent of hydration.
The anhydrate and each of the hydrates were introduced into a glass vial and maintained at 70° C. The extent of decomposition with elapsed time was analyzed by liquid chromatography.

[2] = Moisture sorption of the anhydrate, automatic moisture sorption analyzer; type: physicochemical; details: 25° C., each relative humidity 0 to 95%, in most cases
Description: The moisture sorption velocity and the equilibrium moisture content of the anhydrate of Example 1 was determined by means of an automatic moisture sorption analyzer (MB 300G Gravimetric Sorption Analyzer). This instrument produces a specific relative humidity at a specific temperature and continuously records the weight change of a sample due to adsorption or desorption of moisture as measured by a micro balance inside the instrument. The anhydrate of Example 1 (16 mg) was loaded onto the micro balance and the moisture contained in the sample removed under a stream of dried nitrogen at 50° C. A weight change of less than 5 μg per 5 minutes was the criterion for complete dryness. Thereafter, the inner temperature was adjusted to 25° C. and the sample tested at 5% intervals whilst varying the humidity from 0 to 95%. The sample was considered to have reached equilibrium when the weight change was less than 5 μg per 5 minutes. […] It is clear from FIG. 2 that the equilibrium moisture content of the anhydrate is dependent on the relative humidity.

[3] = system: Escherichia coli TEM3 3455E; assay: In vitro antibacterial activity, agar medium dilution method; type: cell-based; details: TEM33455E, read-out: Minimum Inhibitory Concentration: MIC
Description: (§1) In order to determine whether 7-(3-aminomethyl-4-methyloxyimino-pyrrolidin-1-yl)-1-cyclopropyl-6-fluoro-4-oxo-1,4-dihydro-1,8-naphthyridine-3-carboxylic acid methanesulfonate has the same antibacterial activity as the free base, in vitro antibacterial activity of the methanesulfonate was measured using agar medium dilution method.

[4] = system: Staphylococcus aureus epidermidis 178; assay: as above; type: cell-based; details: read-out: Minimum Inhibitory Concentration: MIC
Description: as §1

Escherichia coli 3190Y = assay: as above; type: cell-based; details: read-out: Minimum Inhibitory Concentration: MIC
Description: as §1

Seratia marsecence 1826E = assay: as above; type: cell-based; details: read-out: Minimum Inhibitory Concentration: MIC
Description: as §1

[5] = system: Pseudomonas aeruginosa 1912E; assay: as above; type: cell-based; details: read-out: Minimum Inhibitory Concentration: MIC
Description: as §1

Micrococcus luteus 9431 = assay: as above; type: cell-based; details: read-out: Minimum Inhibitory Concentration: MIC
Description: as §1

[6] = system: Escherichia coli TEM5 3739E; assay: as above; type: cell-based; details: TEM53739E, read-out: Minimum Inhibitory Concentration: MIC
Description: as §1

Proteus vulgaris 6059 = assay: as above; type: cell-based; details: read-out: Minimum Inhibitory Concentration: MIC
Description: as §1

[7] = system: Staphylococcus aureus epidermidis 887E; assay: as above; type: cell-based; details: read-out: Minimum Inhibitory Concentration: MIC
Description: as §1

[8] = system: Staphylococcus aureus 241; assay: as above; type: cell-based; details: read-out: Minimum Inhibitory Concentration: MIC
Description: as §1

[9] = system: Pseudomonas aeruginosa 10145; assay: as above; type: cell-based; details: read-out: Minimum Inhibitory Concentration: MIC
Description: as §1

Escherichia coli 10536 = assay: as above; type: cell-based; details: read-out: Minimum Inhibitory Concentration: MIC
Description: as §1

Staphylococcus aureus 77 = assay: as above; type: cell-based; details: read-out: Minimum Inhibitory Concentration: MIC
Description: as §1

[10] = system: Klebsiella aerogenes 1976E; assay: as above; type: cell-based; details: read-out: Minimum Inhibitory Concentration: MIC
Description: as §1

[11] = system: Staphylococcus aureus 6538p; assay: as above; type: cell-based; details: weight ratio, molecular weight not considered, read-out: Minimum Inhibitory Concentration: MIC
Description: as §1

Escherichia coli 851E = assay: as above; type: cell-based; details: read-out: Minimum Inhibitory Concentration: MIC
Description: as §1

[12] = system: Acinetobacter calcoaceticus 15473; assay: as above; type: cell-based; details: read-out: Minimum Inhibitory Concentration: MIC
Description: as §1

[13] = system: Staphylococcus aureus giorgio; assay: as above; type: cell-based; details: read-out: Minimum Inhibitory Concentration: MIC
Description: as §1

[14] = system: Staphylococcus aureus faecalis 29212; assay: as above; type: cell-based; details: read-out: Minimum Inhibitory Concentration: MIC
Description: as §1

[15] = system: Salmonella thypimurium 14028; assay: as above; type: cell-based; details: read-out: Minimum Inhibitory Concentration: MIC
Description: as §1

Bacillus subtilis 6633 = assay: as above; type: cell-based; details: read-out: Minimum Inhibitory Concentration: MIC
Description: as §1

Water solubility = details: 25 °C
[16] = system: Klebsiella aerogenes 1082E; assay: In vitro antibacterial activity, agar medium dilution method; type: cell-based; details: read-out: Minimum Inhibitory Concentration: MIC
Description: as §1

[17] = system: Enterobacter cloacae 1194E; assay: as above; type: cell-based; details: read-out: Minimum Inhibitory Concentration: MIC
Description: as §1

[18] = system: Escherichia coli TEM9 2639E; assay: as above; type: cell-based; details: TEM92639E, read-out: Minimum Inhibitory Concentration: MIC
Description: as §1

Enterobacter cloacae P99 = assay: as above; type: cell-based; details: read-out: Minimum Inhibitory Concentration: MIC
Description: as §1

[19] = system: Citrobacter diversus 2046E; assay: as above; type: cell-based; details: Citrobacter koseri, read-out: Minimum Inhibitory Concentration: MIC
Description: as §1

Row | SMILES | MIC [3] | MIC [4] | MIC (Escherichia coli 3190Y) | MIC (Seratia marsecence 1826E) | MIC [5] | MIC (Micrococcus luteus 9431) | MIC [6] | MIC (Proteus vulgaris 6059) | MIC [7] | MIC [8] | MIC [9] | MIC (Escherichia coli 10536) | MIC (Staphylococcus aureus 77) | MIC [10] | MIC [11] | MIC (Escherichia coli 851E) | MIC [12] | MIC [13] | MIC [14] | MIC [15] | also measured
1 | CON=C1CN(c2nc3c(cc2F)c(=O)c(C(=O)O)cn3C2CC2)CC1CN.CS(=O)(=O)O (stereo not drawn) [Anhydrate, 7-(3-aminomethyl-4-methoxyiminopyrrolidin-1-yl)-1-cyclopropyl-6-fluoro-4-oxo-1,4-dihydro-1,8-naphthyridine-3-carboxylic acid methanesulfonate anhydrate] | – | – | – | – | – | – | – | – | – | – | – | – | – | – | – | – | – | – | – | – | Thermal stability with elapsed time ([1]; 1 week): 99.8%; Thermal stability with elapsed time ([1]; 2 weeks): 98.6%; Thermal stability with elapsed time ([1]; 3 weeks): 97.7%; Thermal stability with elapsed time ([1]; 4 weeks): 96.7%; Thermal stability with elapsed time ([1]; Initial): 100%; Time to reach moisture sorption equilibrium [2]: ≤ 2 h
2 | O=C(O)c1cn(C2CC2)c2cc(N3CCNCC3)c(F)cc2c1=O [Ciprofloxacin, ciprofloxacin, reference compound] | 0.5 µg/mL (≈ 1.51 µM) | 128 µg/mL (≈ 386 µM) | < 0.008 µg/mL | 0.063 µg/mL (≈ 0.19 µM) | 0.13 µg/mL (≈ 0.392 µM) | 2 µg/mL (≈ 6.04 µM) | 0.13 µg/mL (≈ 0.392 µM) | 0.031 µg/mL (≈ 0.0936 µM) | 0.13 µg/mL (≈ 0.392 µM) | 128 µg/mL (≈ 386 µM) | 0.5 µg/mL (≈ 1.51 µM) | < 0.008 µg/mL | 0.25 µg/mL (≈ 0.754 µM) | 0.13 µg/mL (≈ 0.392 µM) | 0.13 µg/mL | < 0.008 µg/mL | 0.25 µg/mL (≈ 0.754 µM) | 0.13 µg/mL (≈ 0.392 µM) | 0.5 µg/mL (≈ 1.51 µM) | 0.031 µg/mL (≈ 0.0936 µM) | MIC (Bacillus subtilis 6633): 0.031 µg/mL (≈ 0.0936 µM)
3 | CO/N=C1\CN(c2nc3c(cc2F)c(=O)c(C(=O)O)cn3C2CC2)CC1CN (stereo not drawn) [Free form, 7-(3-aminomethyl-4-methoxyiminopyrrolidin-1-yl)-1-cyclopropyl-6-fluoro-4-oxo-1,4-dihydro-1,8-naphthyridine-3-carboxylic acid] | – | – | – | – | – | – | – | – | – | – | – | – | – | – | – | – | – | – | – | – | solubility (Water solubility): 7 µg/mL (≈ 18 µM)
4 | CON=C1CN(c2nc3c(cc2F)c(=O)c(C(=O)O)cn3C2CC2)CC1CN.CS(=O)(=O)O (stereo not drawn) [Methanesulfonic acid salt, 7-(3-aminomethyl-4-methyloxyimino-pyrrolidin-1-yl)-1-cyclopropyl-6-fluoro-4-oxo-1,4-dihydro-1,8-naphthyridine-3-carboxylic acid methanesulfonate] | 0.25 µg/mL | 4 µg/mL | 0.008 µg/mL | 0.13 µg/mL | 0.25 µg/mL | 0.13 µg/mL | 0.13 µg/mL | 0.25 µg/mL | 0.016 µg/mL | 4 µg/mL | 0.5 µg/mL | 0.008 µg/mL | 0.031 µg/mL | 0.13 µg/mL | 0.016 µg/mL | 0.016 µg/mL | 0.031 µg/mL | 0.016 µg/mL | 0.13 µg/mL | 0.031 µg/mL | MIC [16]: 0.031 µg/mL; MIC [17]: 0.031 µg/mL; MIC [18]: 0.031 µg/mL; MIC (Enterobacter cloacae P99): 0.016 µg/mL; MIC [19]: 0.031 µg/mL; MIC (Bacillus subtilis 6633): 0.016 µg/mL
